This assay deals with T1, DhGMPP (Dendrobium huoshanense, UniProt A0A348HAW3).
T1 construct: gene GMPP; E. coli BL21-AI crude soluble extract, not purified
T1 sequence (A0A348HAW3 1-415): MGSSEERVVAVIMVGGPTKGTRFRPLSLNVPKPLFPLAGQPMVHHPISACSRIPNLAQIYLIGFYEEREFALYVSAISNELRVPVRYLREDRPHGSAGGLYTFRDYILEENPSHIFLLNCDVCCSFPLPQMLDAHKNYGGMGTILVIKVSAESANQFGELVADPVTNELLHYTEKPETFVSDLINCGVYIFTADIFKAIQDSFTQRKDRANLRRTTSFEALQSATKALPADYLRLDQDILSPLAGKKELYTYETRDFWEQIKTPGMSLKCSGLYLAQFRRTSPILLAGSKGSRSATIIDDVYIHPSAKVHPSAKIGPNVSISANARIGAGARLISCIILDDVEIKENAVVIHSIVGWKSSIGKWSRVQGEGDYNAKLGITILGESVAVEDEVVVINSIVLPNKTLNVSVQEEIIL
As to the kind of experiment: HPLC ([…] nm) detection of GDP-mannose formed. Particulars: 2.5 mM GTP, 5 mM MgCl2, 50 mM Tris-HCl pH 7.4, 37 °C, 10 min, crude E. coli extract, untransformed-host extract and boiled protein as controls. The assay is classed as biochemical.

As to `O=P(O)(O)O[C@H]1O[C@H](CO)[C@@H](O)[C@H](O)[C@@H]1O` [α-D-mannose-phosphate], the “HPLC (254 nm) detection of GDP-mannose formed” value (5 mM substrate) was “By utilizing GTP and α-D-mannose-phosphate as substrates, DhGMPP catalyzes the reaction to yield GDP-mannose”.

With `Nc1nc2c(ncn2[C@@H]2O[C@H](COP(=O)(O)OP(=O)(O)OP(=O)(O)O)[C@@H](O)[C@H]2O)c(=O)[nH]1` [GTP], the “HPLC (254 nm) detection of GDP-mannose formed” value (5 mM α-D-mannose-phosphate) was “By utilizing GTP and α-D-mannose-phosphate as substrates, DhGMPP catalyzes the reaction to yield GDP-mannose”.

The values are drawn from PMC7988358, “Characterization of GMPP from Dendrobium huoshanense yielding GDP-D-mannose” (Open Life Sciences, 2021).
